The text below walks through data of article PMC5974420, “Isospecific adenine DNA methyltransferases show distinct preferences towards DNA substrates” (Scientific Reports, 2018).

Series [1] concerns the target T1, M.HindIII (Haemophilus influenzae, UniProt P43871).
T1 construct: gene hindIIIM
Particulars: 0.2 µM [methyl-3H]SAM, 0.15 µM ds oligo (AAGCTT site), 10 mM Tris-HCl pH 7.0, 37 °C, 1 h; labelled compound.

Series [2] addresses T2, M.LlaCI (Lactococcus lactis, UniProt O86267).
T2 construct: gene mllaci
The series can be described thus: radiometric [3H]methyl transfer to DNA. In kind it is biochemical. Particulars: 0.2 µM [methyl-3H]SAM, 0.15 µM ds oligo (AAGCTT site), 10 mM Tris-HCl pH 7.0, 37 °C, 1 h; labelled compound.

Substrate in series [3]: C[S+](CC[C@H](N)C(=O)O)C[C@H]1O[C@@H](n2cnc3c(N)ncnc32)[C@H](O)[C@@H]1O
The series can be described thus: purified protein. Particulars: 10 µM unmethylated ds oligo AAGCTT1/AAGCTT2 (AAGCTT site), 10 mM Tris-HCl pH 7.0, 37 °C, 5 min, 135 nM enzyme, labelled compound.

T1 sequence (P43871 whole entry): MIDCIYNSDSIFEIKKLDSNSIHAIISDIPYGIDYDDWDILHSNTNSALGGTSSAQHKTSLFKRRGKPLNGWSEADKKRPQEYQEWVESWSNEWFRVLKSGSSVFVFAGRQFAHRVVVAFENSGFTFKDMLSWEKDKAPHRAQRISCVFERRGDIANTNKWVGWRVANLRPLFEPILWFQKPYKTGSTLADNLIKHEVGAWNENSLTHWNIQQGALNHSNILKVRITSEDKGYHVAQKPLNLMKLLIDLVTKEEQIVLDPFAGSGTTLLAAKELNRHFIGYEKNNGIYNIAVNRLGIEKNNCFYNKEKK
T2 sequence (O86267 1-296): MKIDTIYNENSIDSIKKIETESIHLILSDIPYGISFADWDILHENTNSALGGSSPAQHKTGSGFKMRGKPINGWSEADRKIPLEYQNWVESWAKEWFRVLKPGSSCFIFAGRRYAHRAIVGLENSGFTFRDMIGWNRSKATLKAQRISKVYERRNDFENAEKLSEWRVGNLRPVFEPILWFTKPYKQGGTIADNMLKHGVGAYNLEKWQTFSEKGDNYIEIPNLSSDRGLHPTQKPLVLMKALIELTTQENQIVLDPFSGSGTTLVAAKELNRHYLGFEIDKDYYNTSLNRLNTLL

On to `C[S+](CC[C@H](N)C(=O)O)C[C@H]1O[C@@H](n2cnc3c(N)ncnc32)[C@H](O)[C@@H]1O` (stereo partly drawn) [AdoMet], for which the “radiometric [3H]methyl transfer to DNA” value in series [1] and in series [2] was “monitoring transfer of the radioactively labelled methyl groups from [^3H]AdoMet to DNA” each time.

B1: M.EcoVIII (Escherichia coli) (protein)
chain: MLNKIQLPDEIKKNTVTNGNSISLIKKLPSQYAHLILSDIPYGIGAEDWDVLHNNSNNAYLGSSPAQKNAGAIFKKRGKPINGWSEADKKIPLEYQQWCEEWATEWFRVLKPGASAIIFAGRRFSHRCICAMEDAGFNLRDIIAWMRVKAPHRAQRLSCVYERRGDTLNAEKWNGWRVGNLQPTFEPILWFSKPYKIGGTIADNAIIHGVGAYNQDAFVARNGKPENVITAGFSSNESGLHPTQKPVALMKTLIELTTQKGQLVIDPFSGSGSTLVAAKDLGRDYIGFEINPTYVETSIKRLNK
Take B1: the Km in series [3] is 0.27 ± 0.006 µM.
